Data reported in patent publication US20220135526A1, “QUATERNARY AMMONIUM SALT COMPOUND, PREPARATION METHOD THEREFOR AND USE THEREOF” (WEST CHINA HOSPITAL, SICHUAN UNIVERSITY, priority 2019, published 2022).

System: rat's sciatic nerve
Assay: Local anesthetic effect after injection near the rat sciatic nerve (von Frey stimulation; Postural Extensor Thrust for motor function)
Format: in vivo
Details: SD rats, 0.5 mL near sciatic nerve; Postural Extensor Thrust; compounds 20 mmol/mL, levobupivacaine 0.75%, lidocaine 2%
Experimental: Dosage: for lidocaine group, lidocaine was formulated with distilled water into a solution at the concentration of 2% (74 mmol/L); for levobupivacaine group, levobupivacaine was formulated with distilled water into a solution at the concentration of 0.75% (22 mmol/L); the compound of the present invention was formulated with distilled water into a solution at the concentration of […].
The injection volume for each rat was 0.5 mL, which was guided by a nerve locator and injected near the rat's sciatic nerve. Using von Frey stimulator, the rats were stimulated the soles of the feet in the injected side, to observe the effect of local anesthesia. Meanwhile, Postural Extensor Thrust (PET) was used to evaluate the motor function of the rat: the rat was lifted vertically and the hindlimb in the injected side pedaled on the platform of the electronic balance. […] When the limb was completely paralyzed, the reading was the limb's own weight, about 20 g. If the measured value was more than half of the difference between the baseline and the limb weight, the motor function was regarded as recovery, and if the value was […], the motor function was regarded as loss.

Structure (SMILES) | Duration of motor block
Cc1cccc(C)c1NC(=O)C[N+](CCCO)(CCCCO)CCCCCCN1CCCCC1C(=O)Nc1c(C)cccc1C.[Br-] (stereo not shown) [Example 18 product] | 16 h
Cc1cccc(C)c1NC(=O)C[N+]1(CCCCCCN2CCCCC2C(=O)Nc2c(C)cccc2C)CCOC(C)C1 (stereo not shown) [Example 54 product] | 15 h
CCCCC[N+](CCCCO)(CCCCCCN1CCCCC1C(=O)Nc1c(C)cccc1C)CC(=O)Nc1c(C)cccc1C.[Br-] (stereo not shown) [Example 16 product] | 17 h
Cc1cccc(C)c1NC(=O)C[N+](CCO)(CCO)CCCCCCN1CCCCC1C(=O)Nc1c(C)cccc1C (stereo not shown) [Example 17 product] | 18 h
CCCCC[N+](CCCCC)(CCCCCCN1CCC1C(=O)Nc1c(C)cccc1C)CC(=O)Nc1c(C)cccc1C (stereo not shown) [Example 65 product] | 19 h
CCCCC[N+](CCCCC)(CCCN1CCCCC1C(=O)Nc1c(C)cccc1C)CC(=O)Nc1c(C)cccc1C.Cl.[Br-] (stereo not shown) [Example 10 product] | 19 h
Cc1cccc(C)c1NC(=O)C[N+]1(CCCCN2CCCCC2C(=O)Nc2c(C)cccc2C)CCOCC1C (stereo not shown) [Example 49 product] | 20 h
Cc1cccc(C)c1NC(=O)C[N+]1(CCCCCCN2CCCCC2C(=O)Nc2c(C)cccc2C)CCOCC1 (stereo not shown) [Example 52 product] | 15 h
Cc1cccc(C)c1NC(=O)C[N+](CCCCO)(CCCCO)CCCCCCN1CCC1C(=O)Nc1c(C)cccc1C (stereo not shown) [Example 66 product] | 10 h
CCOCC[N+](CCCCO)(CCCCCCN1CCCCC1C(=O)Nc1c(C)cccc1C)CC(=O)Nc1c(C)cccc1C (stereo not shown) [Example 35 product] | 13 h
Cc1cccc(C)c1NC(=O)C[N+]1(CCCCN2CCCCC2C(=O)Nc2c(C)cccc2C)CC(C)OC(C)C1 (stereo not shown) [Example 50 product] | 13 h
CCCCC[N+](CCCCC)(CCCN1CCCCC1C(=O)Nc1c(C)cccc1C)CC(=O)Nc1c(C)cccc1C (stereo not shown) [Example 1 product] | 21 h

Same assay, conditions: SD rats, 0.5 mL near sciatic nerve; compounds 20 mmol/mL, levobupivacaine 0.75% (22 mmol/L), lidocaine 2% (74 mmol/L)

Structure (SMILES) | Local anesthesia onset time
Cc1cccc(C)c1NC(=O)C[N+](CCCO)(CCCCO)CCCCCCN1CCCCC1C(=O)Nc1c(C)cccc1C.[Br-] (stereo not shown) [Example 18 product] | 2 min
Cc1cccc(C)c1NC(=O)C[N+]1(CCCCCCN2CCCCC2C(=O)Nc2c(C)cccc2C)CCOC(C)C1 (stereo not shown) [Example 54 product] | 5 min
CCCCC[N+](CCCCO)(CCCCCCN1CCCCC1C(=O)Nc1c(C)cccc1C)CC(=O)Nc1c(C)cccc1C.[Br-] (stereo not shown) [Example 16 product] | 5 min
Cc1cccc(C)c1NC(=O)C[N+](CCO)(CCO)CCCCCCN1CCCCC1C(=O)Nc1c(C)cccc1C (stereo not shown) [Example 17 product] | 5 min
CCCCC[N+](CCCCC)(CCCCCCN1CCC1C(=O)Nc1c(C)cccc1C)CC(=O)Nc1c(C)cccc1C (stereo not shown) [Example 65 product] | 5 min
CCCCC[N+](CCCCC)(CCCN1CCCCC1C(=O)Nc1c(C)cccc1C)CC(=O)Nc1c(C)cccc1C.Cl.[Br-] (stereo not shown) [Example 10 product] | 3 min
Cc1cccc(C)c1NC(=O)C[N+]1(CCCCN2CCCCC2C(=O)Nc2c(C)cccc2C)CCOCC1C (stereo not shown) [Example 49 product] | 4 min
Cc1cccc(C)c1NC(=O)C[N+]1(CCCCCCN2CCCCC2C(=O)Nc2c(C)cccc2C)CCOCC1 (stereo not shown) [Example 52 product] | 2 min
Cc1cccc(C)c1NC(=O)C[N+](CCCCO)(CCCCO)CCCCCCN1CCC1C(=O)Nc1c(C)cccc1C (stereo not shown) [Example 66 product] | 1 min
CCOCC[N+](CCCCO)(CCCCCCN1CCCCC1C(=O)Nc1c(C)cccc1C)CC(=O)Nc1c(C)cccc1C (stereo not shown) [Example 35 product] | 2 min
Cc1cccc(C)c1NC(=O)C[N+]1(CCCCN2CCCCC2C(=O)Nc2c(C)cccc2C)CC(C)OC(C)C1 (stereo not shown) [Example 50 product] | 5 min
CCCCC[N+](CCCCC)(CCCN1CCCCC1C(=O)Nc1c(C)cccc1C)CC(=O)Nc1c(C)cccc1C (stereo not shown) [Example 1 product] | 3 min

Same assay, conditions: SD rats, 0.5 mL near sciatic nerve; von Frey; compounds 20 mmol/mL, levobupivacaine 0.75%, lidocaine 2%

Structure (SMILES) | Duration of sensory block
Cc1cccc(C)c1NC(=O)C[N+](CCCO)(CCCCO)CCCCCCN1CCCCC1C(=O)Nc1c(C)cccc1C.[Br-] (stereo not shown) [Example 18 product] | 38 h
Cc1cccc(C)c1NC(=O)C[N+]1(CCCCCCN2CCCCC2C(=O)Nc2c(C)cccc2C)CCOC(C)C1 (stereo not shown) [Example 54 product] | 66 h
CCCCC[N+](CCCCO)(CCCCCCN1CCCCC1C(=O)Nc1c(C)cccc1C)CC(=O)Nc1c(C)cccc1C.[Br-] (stereo not shown) [Example 16 product] | 60 h
Cc1cccc(C)c1NC(=O)C[N+](CCO)(CCO)CCCCCCN1CCCCC1C(=O)Nc1c(C)cccc1C (stereo not shown) [Example 17 product] | 37 h
CCCCC[N+](CCCCC)(CCCCCCN1CCC1C(=O)Nc1c(C)cccc1C)CC(=O)Nc1c(C)cccc1C (stereo not shown) [Example 65 product] | 59 h
CCCCC[N+](CCCCC)(CCCN1CCCCC1C(=O)Nc1c(C)cccc1C)CC(=O)Nc1c(C)cccc1C.Cl.[Br-] (stereo not shown) [Example 10 product] | 25 h
Cc1cccc(C)c1NC(=O)C[N+]1(CCCCN2CCCCC2C(=O)Nc2c(C)cccc2C)CCOCC1C (stereo not shown) [Example 49 product] | 45 h
Cc1cccc(C)c1NC(=O)C[N+]1(CCCCCCN2CCCCC2C(=O)Nc2c(C)cccc2C)CCOCC1 (stereo not shown) [Example 52 product] | 56 h
Cc1cccc(C)c1NC(=O)C[N+](CCCCO)(CCCCO)CCCCCCN1CCC1C(=O)Nc1c(C)cccc1C (stereo not shown) [Example 66 product] | 60 h
CCOCC[N+](CCCCO)(CCCCCCN1CCCCC1C(=O)Nc1c(C)cccc1C)CC(=O)Nc1c(C)cccc1C (stereo not shown) [Example 35 product] | 54 h
Cc1cccc(C)c1NC(=O)C[N+]1(CCCCN2CCCCC2C(=O)Nc2c(C)cccc2C)CC(C)OC(C)C1 (stereo not shown) [Example 50 product] | 56 h
CCCCC[N+](CCCCC)(CCCN1CCCCC1C(=O)Nc1c(C)cccc1C)CC(=O)Nc1c(C)cccc1C (stereo not shown) [Example 1 product] | 32 h

System: back skin of SD rat
Assay: Local anesthetic effect by subcutaneous infiltration (back skin, Von Frey fiber 100 g)
Format: in vivo
Details: SD rats, 0.5 mL subcutaneous in saline; compounds 6 mmol/L, controls 0.75% (22 mmol/L) and 2% (74 mmol/L)
Experimental: After the back of SD rat weighing 250-300 g (half female and half male) was shaved and disinfected, a circle with a diameter of about 1.5 cm was drawn on the side of the exposed back, and the circle is divided into 6 equal parts. […] Among the Von Frey fiber yarns, the one with a strength of 100 g was bound to the needle for local skin stimulation. One minute After the drug was injected, the above method was used to stimulate in 6 divisions. […] If back skin contraction was observed, the local anesthetic effect was considered as loss. […] Each compound was tested with 10 rats.

Structure (SMILES) | Duration of local anesthesia (median) | Local anesthesia onset time (median)
Cc1cccc(C)c1NC(=O)C[N+](CCCO)(CCCCO)CCCCCCN1CCCCC1C(=O)Nc1c(C)cccc1C.[Br-] (stereo not shown) [Example 18 product] | 49 h | 1 min
Cc1cccc(C)c1NC(=O)C[N+]1(CCCCCCN2CCCCC2C(=O)Nc2c(C)cccc2C)CCOC(C)C1 (stereo not shown) [Example 54 product] | 69 h | 2 min
CCCCC[N+](CCCCO)(CCCCCCN1CCCCC1C(=O)Nc1c(C)cccc1C)CC(=O)Nc1c(C)cccc1C.[Br-] (stereo not shown) [Example 16 product] | 54 h | 2 min
Cc1cccc(C)c1NC(=O)C[N+](CCO)(CCO)CCCCCCN1CCCCC1C(=O)Nc1c(C)cccc1C (stereo not shown) [Example 17 product] | 56 h | 2 min
CCCCC[N+](CCCCC)(CCCCCCN1CCC1C(=O)Nc1c(C)cccc1C)CC(=O)Nc1c(C)cccc1C (stereo not shown) [Example 65 product] | 68 h | 1 min
CCCCC[N+](CCCCC)(CCCN1CCCCC1C(=O)Nc1c(C)cccc1C)CC(=O)Nc1c(C)cccc1C.Cl.[Br-] (stereo not shown) [Example 10 product] | 56 h | 1 min
Cc1cccc(C)c1NC(=O)C[N+]1(CCCCN2CCCCC2C(=O)Nc2c(C)cccc2C)CCOCC1C (stereo not shown) [Example 49 product] | 62 h | 1 min
Cc1cccc(C)c1NC(=O)C[N+]1(CCCCCCN2CCCCC2C(=O)Nc2c(C)cccc2C)CCOCC1 (stereo not shown) [Example 52 product] | 85 h | 3 min
Cc1cccc(C)c1NC(=O)C[N+](CCCCO)(CCCCO)CCCCCCN1CCC1C(=O)Nc1c(C)cccc1C (stereo not shown) [Example 66 product] | 87 h | 1 min
CCOCC[N+](CCCCO)(CCCCCCN1CCCCC1C(=O)Nc1c(C)cccc1C)CC(=O)Nc1c(C)cccc1C (stereo not shown) [Example 35 product] | 92 h | 2 min
Cc1cccc(C)c1NC(=O)C[N+]1(CCCCN2CCCCC2C(=O)Nc2c(C)cccc2C)CC(C)OC(C)C1 (stereo not shown) [Example 50 product] | 56 h | 2 min
CCCCC[N+](CCCCC)(CCCN1CCCCC1C(=O)Nc1c(C)cccc1C)CC(=O)Nc1c(C)cccc1C (stereo not shown) [Example 1 product] | 25 h | 1 min

System: not given
Assay: not given
Details: QX314 with the addition of surfactants (Kohane, PNAS 2010); cited from earlier work

Structure (SMILES) | duration of local anesthesia
CC[N+](CC)(CC)CC(=O)Nc1c(C)cccc1C [QX314] | more than 8 hours
